Where a name gives a salt, the structure may show the parent alone.
What was measured:
[1] = molecular target: T1, S1P3 (Homo sapiens, UniProt Q99500); assay: Receptor [35S] GTPγS Binding Assay, membranes from EDG3-Ga15-bla HEK293T cells; assay type: biochemical; details: * detection limit 31,000 nM or 62,000 nM
T1 construct: expressed in transfected cells; host or cells: EDG3-Ga15-bla HEK293T cells
Protocol: (§1) Receptor [35S] GTPγS Binding Assays
(§2) Membranes prepared from S1P1/CHO cells or EDG3-Ga15-bla HEK293T cells were added to the compound plate (40 μl/well, final protein 3 μg/well) with MULTIDROP®. [^35S]GTP (1250 Ci/mmol, Perkin Elmer) was diluted in assay buffer: 20 mM HEPES, pH7.5, 10 mM MgCl2, 150 mM NaCl, 1 mM EGTA, 1 mM DTT, 10 μM GDP, 0.1% fatty acid free BSA, and 10 μg/ml Saponin to 0.4 nM. 40 μl of the [^35S] GTP solution was added to the compound plate with a final concentration of 0.2 nM. […] At the end of incubation, all the mixtures in the compound plate were transferred to a 384 well FB filter plates via GPCR robot system. […] 30 μl of MicroScint 20 scintillation fluid was added to each well for counting at Packard TOPCOUNT®.

[2] = molecular target: S1P1 (Homo sapiens, UniProt P21453); assay: Receptor [35S] GTPγS Binding Assay, membranes from S1P1/CHO cells; assay type: biochemical; design: expressed in transfected cells; host or cells: S1P1/CHO cells; details: for EC50: membranes from S1P1/CHO cells, read-out: S1P1 GTPγS EC50; for S1P3/S1P1 GTPγS (ratio of S1P3 GTPγS EC50 to S1P1 GTPγS EC50): selectivity ratio calculated from Table B, * may be greater than reported value due to S1P3 assay limits
Protocol: as §1, §2

T1 sequence (Q99500 whole entry): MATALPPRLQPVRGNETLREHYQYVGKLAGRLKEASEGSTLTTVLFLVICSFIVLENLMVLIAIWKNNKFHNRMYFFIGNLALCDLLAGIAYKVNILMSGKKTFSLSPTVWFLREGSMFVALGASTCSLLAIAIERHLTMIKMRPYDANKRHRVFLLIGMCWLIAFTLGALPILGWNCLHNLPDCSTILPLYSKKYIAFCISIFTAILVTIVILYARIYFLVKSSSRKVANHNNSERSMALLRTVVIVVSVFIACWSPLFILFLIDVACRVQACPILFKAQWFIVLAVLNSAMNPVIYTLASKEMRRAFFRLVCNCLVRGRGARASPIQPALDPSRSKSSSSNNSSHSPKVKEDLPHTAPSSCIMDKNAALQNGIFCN
Sequence of S1P1 (P21453 whole entry): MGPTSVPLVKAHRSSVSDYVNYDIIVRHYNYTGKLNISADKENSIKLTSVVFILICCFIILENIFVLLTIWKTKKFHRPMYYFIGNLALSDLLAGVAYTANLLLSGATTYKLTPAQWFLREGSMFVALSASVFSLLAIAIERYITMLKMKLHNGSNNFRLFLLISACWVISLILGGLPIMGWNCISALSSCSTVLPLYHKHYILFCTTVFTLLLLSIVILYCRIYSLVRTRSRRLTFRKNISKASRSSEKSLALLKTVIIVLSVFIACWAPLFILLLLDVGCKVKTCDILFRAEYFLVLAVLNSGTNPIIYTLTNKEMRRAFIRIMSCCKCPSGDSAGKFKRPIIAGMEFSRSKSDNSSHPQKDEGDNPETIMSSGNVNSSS

Question: `Cc1cccc(-c2noc(-c3nc(-c4ccc(C(O)CN5CCC[C@H](C(=O)O)C5)cc4)no3)c2C(F)(F)F)n1` (stereo partly drawn) [Example 37, (3S)-1-(2-Hydroxy-2-(4-(5-(3-(6-methylpyridin-2-yl)-4-(trifluoromethyl)isoxazol-5-yl)-1,2,4-oxadiazol-3-yl)phenyl)ethyl)piperidine-3-carboxylic acid] was tested. Which EC50 [1] did it give?
Answer: > 62000 nM

Question: And the EC50 [2]?
Answer: 69 nM

Question: And the “S1P3/S1P1 GTPγS (ratio of S1P3 GTPγS EC50 to S1P1 GTPγS EC50)” value [2]?
Answer: ≥ 910*

Question: With `O=C(O)[C@H]1CCCCN1CC(O)c1ccc(-c2noc(-c3onc(-c4ccccc4)c3C(F)(F)F)n2)cc1` (stereo partly drawn) [Example 41, (2R)-1-(2-Hydroxy-2-(4-(5-(3-phenyl-4-(trifluoromethyl)isoxazol-5-yl)-1,2,4-oxadiazol-3-yl)phenyl)ethyl)piperidine-2-carboxylic acid] as the compound, how does the EC50 [1] read?
Answer: 7500 nM

Question: And the EC50 [2]?
Answer: 5.4 nM

Question: What about the “S1P3/S1P1 GTPγS (ratio of S1P3 GTPγS EC50 to S1P1 GTPγS EC50)” value [2] of the same compound?
Answer: 1400

Question: With `O=C(O)[C@H]1CCCN(CC(O)c2ccc(-c3noc(-c4ccc(-c5ccccn5)s4)n3)cc2)C1` (stereo partly drawn) [Example 43, (3S)-1-(2-hydroxy-2-(4-(5-(5-(pyridin-2-yl)thiophen-2-yl)-1,2,4-oxadiazol-3-yl)phenyl)ethyl)piperidine-3-carboxylic acid] as the compound, how does the EC50 [1] read?
Answer: > 62000 nM

Question: What about the EC50 [2] of the same compound?
Answer: 360 nM

Question: What about the “S1P3/S1P1 GTPγS (ratio of S1P3 GTPγS EC50 to S1P1 GTPγS EC50)” value [2] of the same compound?
Answer: ≥ 170*

Question: Which EC50 [1] does the source give for `Cc1nc(-c2ccccc2)sc1-c1nc(-c2ccc(C(O)CN3CCC[C@H](C(=O)O)C3)cc2)no1` (stereo partly drawn) [Example 46, (3S)-1-(2-hydroxy-2-(4-(5-(4-methyl-2-phenylthiazol-5-yl)-1,2,4-oxadiazol-3-yl)phenyl)ethyl)piperidine-3-carboxylic acid] here?
Answer: 8100 nM

Question: What about the EC50 [2] of the same compound?
Answer: 630 nM

Question: What about the “S1P3/S1P1 GTPγS (ratio of S1P3 GTPγS EC50 to S1P1 GTPγS EC50)” value [2] of the same compound?
Answer: 13

Question: What does the source list for `O=C(O)[C@H]1CCCN(CC(O)c2ccc(-c3noc(-c4cc(-c5ccc(Cl)cc5)on4)n3)cc2)C1` (stereo partly drawn) [Example 53, (3S)-1-(2-(4-(5-(5-(4-chlorophenyl)isoxazol-3-yl)-1,2,4-oxadiazol-3-yl)phenyl)-2-hydroxyethyl)piperidine-3-carboxylic acid]?
Answer: EC50 [1]: > 31000 nM; EC50 [2]: 1900 nM; S1P3/S1P1 GTPγS (ratio of S1P3 GTPγS EC50 to S1P1 GTPγS EC50) [2]: ≥ 16*

Question: What does the source list for `O=C(O)C[C@H]1CCCN(C[C@@H](O)c2ccc(-c3noc(-c4cnn(C5CCCCC5)c4C(F)(F)F)n3)cc2)C1` [Example 59, 2-((R)-1-((S)-2-(4-(5-(1-cyclohexyl-5-(trifluoromethyl)-1H-pyrazol-4-yl)-1,2,4-oxadiazol-3-yl)phenyl)-2-hydroxyethyl)piperidin-3-yl)acetic acid, HCl]?
Answer: EC50 [1]: 2080 nM; EC50 [2]: 1.8 nM; S1P3/S1P1 GTPγS (ratio of S1P3 GTPγS EC50 to S1P1 GTPγS EC50) [2]: 1160

Question: Which EC50 [1] does the source give for `O=C(O)C[C@H]1CCCN(C[C@@H](O)c2ccc(-c3noc(-c4cnn(-c5ccc(Cl)cn5)c4C(F)(F)F)n3)cc2)C1` [Example 70, 2-((R)-1-((S)-2-(4-(5-(1-(5-chloropyridin-2-yl)-5-(trifluoromethyl)-1H-pyrazol-4-yl)-1,2,4-oxadiazol-3-yl)phenyl)-2-hydroxyethyl)piperidin-3-yl)acetic acid, HCl] here?
Answer: 10400 nM

Question: What about the EC50 [2] of the same compound?
Answer: 1.2 nM

Question: What about the “S1P3/S1P1 GTPγS (ratio of S1P3 GTPγS EC50 to S1P1 GTPγS EC50)” value [2] of the same compound?
Answer: 8800

Question: How did the EC50 [1] turn out when `O=C(O)C[C@H]1CCCN(C[C@@H](O)c2ccc(-c3noc(-c4cnn(-c5ccccc5Cl)c4C(F)(F)F)n3)cc2)C1` [Example 72, 2-((3R)-1-((2S)-2-(4-(5-(1-(2-chlorophenyl)-5-(trifluoromethyl)-1H-pyrazol-4-yl)-1,2,4-oxadiazol-3-yl)phenyl)-2-hydroxyethyl)piperidin-3-yl)acetic acid, HCl] was run?
Answer: 24800 nM

Question: And the EC50 [2]?
Answer: 3.6 nM

Question: And the “S1P3/S1P1 GTPγS (ratio of S1P3 GTPγS EC50 to S1P1 GTPγS EC50)” value [2]?
Answer: 6900

Question: Which EC50 [1] does the source give for `O=C(O)C[C@H]1CCCN(C[C@@H](O)c2ccc(-c3noc(-c4cnn(-c5ccc(F)cc5F)c4C(F)(F)F)n3)cc2)C1` [Example 73, 2-((3R)-1-((2S)-2-(4-(5-(1-(2,4-difluorophenyl)-5-(trifluoromethyl)-1H-pyrazol-4-yl)-1,2,4-oxadiazol-3-yl)phenyl)-2-hydroxyethyl)piperidin-3-yl)acetic acid, HCl] here?
Answer: 2200 nM

Question: What about the EC50 [2] of the same compound?
Answer: 2.1 nM

Question: And the “S1P3/S1P1 GTPγS (ratio of S1P3 GTPγS EC50 to S1P1 GTPγS EC50)” value [2]?
Answer: 1030

Question: `Cl.O=C(O)C[C@H]1CCCN(C[C@@H](O)c2ccc(-c3noc(-c4cnn(-c5ccc(F)cn5)c4C(F)(F)F)n3)cc2)C1` [Example 82, 2-((R)-1-((S)-2-(4-(5-(1-(5-fluoropyridin-2-yl)-5-(trifluoromethyl)-1H-pyrazol-4-yl)-1,2,4-oxadiazol-3-yl)phenyl)-2-hydroxyethyl)piperidin-3-yl)acetic acid, HCl] was tested. Which EC50 [1] did it give?
Answer: 6090 nM

Question: What about the EC50 [2] of the same compound?
Answer: 3 nM

Question: And the “S1P3/S1P1 GTPγS (ratio of S1P3 GTPγS EC50 to S1P1 GTPγS EC50)” value [2]?
Answer: 2050

Question: `Cc1ccc(-n2ncc(-c3nc(-c4ccc([C@H](O)CN5CCC[C@H](CC(=O)O)C5)cc4)no3)c2C(F)(F)F)nc1` [Example 94, 2-((R)-1-((S)-2-hydroxy-2-(4-(5-(1-(5-methylpyridin-2-yl)-5-(trifluoromethyl)-1H-pyrazol-4-yl)-1,2,4-oxadiazol-3-yl)phenyl)ethyl)piperidin-3-yl)acetic acid] was tested. Which EC50 [1] did it give?
Answer: 6300 nM

Question: And the EC50 [2]?
Answer: 8.6 nM

Question: What about the “S1P3/S1P1 GTPγS (ratio of S1P3 GTPγS EC50 to S1P1 GTPγS EC50)” value [2] of the same compound?
Answer: 730

Question: `O=C(O)[C@H]1CCCN(C[C@@H](O)c2ccc(-c3noc(-c4cnn(-c5ccc(C(F)(F)F)cn5)c4C(F)(F)F)n3)cc2)C1` [Example 98, (S)-1-((S)-2-hydroxy-2-(4-(5-(5-(trifluoromethyl)-1-(5-(trifluoromethyl)pyridin-2-yl)-1H-pyrazol-4-yl)-1,2,4-oxadiazol-3-yl)phenyl)ethyl)piperidine-3-carboxylic acid, HCl] was tested. Which EC50 [1] did it give?
Answer: 3300 nM

Question: What about the EC50 [2] of the same compound?
Answer: 3 nM

Question: What about the “S1P3/S1P1 GTPγS (ratio of S1P3 GTPγS EC50 to S1P1 GTPγS EC50)” value [2] of the same compound?
Answer: 1100

Question: Which EC50 [1] does the source give for `O=C(O)[C@H]1CCCN(C[C@@H](O)c2ccc(-c3noc(-c4cnn(-c5ncc(Cl)cc5Cl)c4C(F)(F)F)n3)cc2)C1` [Example 100, (S)-1-((S)-2-(4-(5-(1-(3,5-dichloropyridin-2-yl)-5-(trifluoromethyl)-1H-pyrazol-4-yl)-1,2,4-oxadiazol-3-yl)phenyl)-2-hydroxyethyl) piperidine-3-carboxylic acid, HCl] here?
Answer: > 31000 nM

Question: What about the EC50 [2] of the same compound?
Answer: 6.8 nM

Question: What about the “S1P3/S1P1 GTPγS (ratio of S1P3 GTPγS EC50 to S1P1 GTPγS EC50)” value [2] of the same compound?
Answer: ≥ 4580*

Question: `O=C(O)[C@H]1CCCN(C[C@@H](O)c2ccc(-c3noc(-c4cnn(-c5ccccn5)c4C(F)(F)F)n3)cc2)C1` [Example 104, (S)-1-((S)-2-hydroxy-2-(4-(5-(1-(pyridin-2-yl)-5-(trifluoromethyl)-1H-pyrazol-4-yl)-1,2,4-oxadiazol-3-yl)phenyl)ethyl)pipcridine-3-carboxylic acid] was tested. Which EC50 [1] did it give?
Answer: > 31000 nM

Question: And the EC50 [2]?
Answer: 4.5 nM

Question: What about the “S1P3/S1P1 GTPγS (ratio of S1P3 GTPγS EC50 to S1P1 GTPγS EC50)” value [2] of the same compound?
Answer: ≥ 6900*

Question: Which EC50 [1] does the source give for `O=C(O)[C@H]1CCCN(C[C@@H](O)c2ccc(-c3noc(-c4cnn(C5CCCCC5)c4C(F)(F)F)n3)cc2)C1` [Example 106, (S)-1-((S)-2-(4-(5-(1-cyclohcxyl-5-(trifluoromethyl)-1H-pyrazol-4-yl)-1,2,4-oxadiazol-3-yl)phenyl)-2-hydroxyethyl) piperidine-3-carboxylic acid] here?
Answer: 2250 nM

Question: What about the EC50 [2] of the same compound?
Answer: 1 nM

Question: What about the “S1P3/S1P1 GTPγS (ratio of S1P3 GTPγS EC50 to S1P1 GTPγS EC50)” value [2] of the same compound?
Answer: 2250

Question: What does the source list for `O=C(O)C[C@H]1CCCN(C[C@@H](O)c2ccc(-c3noc(-c4ncn(-c5ccc(Cl)cc5)c4C(F)(F)F)n3)cc2)C1` [Example 117, 2-((R)-1-((S)-2-(4-(5-(1-(4-Chlorophenyl)-5-(trifluoromethyl)-1H-imidazol-4-yl)-1,2,4-oxadiazol-3-yl)phenyl)-2-hydroxyethyl)piperidin-3-yl)acetic acid]?
Answer: EC50 [1]: > 62000 nM; EC50 [2]: 26 nM; S1P3/S1P1 GTPγS (ratio of S1P3 GTPγS EC50 to S1P1 GTPγS EC50) [2]: ≥ 2400*

— patent US8399451B2, “Heterocyclic compounds” (Bristol-Myers Squibb Company, priority 2009, dated 2013)
